Reference: patent US20260373149A1, “MIXED LINEAGE KINASE DOMAIN LIKE PSEUDOKINASE (MLKL) ACTIVATORS” (Trustees of Tufts College, priority 2022, published 2026)
Where a chain is given by its changes, count along the chain named.

Key:
Format in all cases: cell-based
[1] = system: transformed mouse embryonic fibroblasts with genetic deletions of RIPK3 and MLKL genes; assay: Viability of transformed mouse embryonic fibroblasts with genetic deletions of RIPK3 and MLKL genes; conditions: MEFs with genetic deletions of RIPK3 and MLKL; FIG. 3
Method: Viability of transformed mouse embryonic fibroblasts with genetic deletions of RIPK3 and MLKL genes and treated with SS-1-127 are shown. Affinities of select MLKL activators against recombinant human RIPK1, RIPK3, and MLKL were determined by DiscoveRx.
The compounds described herein are capable of directly activating the downstream executioner of necroptosis, MLKL, thus bypassing a requirement for RIPK3 (FIG. 2).

[2] = target: T1, S345A/S347A mutant of MLKL (Mus musculus, UniProt Q9D2Y4, S345A/S347A); assay: Viability of Mlkl-/- MEFs expressing S345A/S347A mutant of mouse MLKL-FLAG (CellTiter-Glo); conditions: 5 μM; 50 ng/ml Dox 6 hr, then 24 hr; FIG. 6
T1 sequence (Q9D2Y4 1-472 S345A/S347A): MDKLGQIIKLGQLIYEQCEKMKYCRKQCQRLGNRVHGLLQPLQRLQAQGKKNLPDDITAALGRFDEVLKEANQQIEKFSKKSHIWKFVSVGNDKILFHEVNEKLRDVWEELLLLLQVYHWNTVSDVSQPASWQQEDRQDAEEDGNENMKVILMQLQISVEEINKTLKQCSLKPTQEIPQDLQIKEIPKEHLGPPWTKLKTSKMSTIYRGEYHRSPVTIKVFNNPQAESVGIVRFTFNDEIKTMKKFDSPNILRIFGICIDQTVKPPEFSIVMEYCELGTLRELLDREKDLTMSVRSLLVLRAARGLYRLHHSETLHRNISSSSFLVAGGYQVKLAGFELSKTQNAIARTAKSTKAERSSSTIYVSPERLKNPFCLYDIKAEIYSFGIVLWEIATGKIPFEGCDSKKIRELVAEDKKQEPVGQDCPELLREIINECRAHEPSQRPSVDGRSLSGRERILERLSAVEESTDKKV
Method: (§1) Plots show cell viability (%) versus MLKL mutant expressed. […] Cells conditionally expressing wild type and mutants of MLKL have been generated. M272W mutant of MLKL is active but predicted not to bind to MLKL activators. S345A/S347A mutant of MLKL lacks RIPK3 phosphorylation sites. Cells were treated with 50 ng/ml of Dox for 6 hr followed by MLKL activators (left panels) or TNFα/IDN6556 (right panels). The latter combination is a canonical inducer of necroptosis through RIPK3 activation. 5 μM ALD-6-85 and SS-1-127 were used in top and bottom panels, respectively.
(§2) The activity of ALD-6-85 was tested in the cells expressing either wild type MLKL or mutant expressing a bulky Trp residue in place of M272 gatekeeper residue. This mutation is expected to disrupt binding of the drug to MLKL. […] To ensure that observed reduction in killing is not due to the intrinsically lower pro-death activity of M272W mutant, cells were also stimulated with TNF+IDN, inducing necroptosis through a canonical TNFR1-RIPK1-RIPK3-MLKL pathway. […] We also generated MEFs expressing S345A, S347A double mutant of mouse MLKL.

[3] = target: T2, E239Q mutant of mouse MLKL (Mus musculus, UniProt Q9D2Y4, E239Q); assay: Viability of Mlkl-/- MEFs expressing wild type or E239Q mutant of mouse MLKL-FLAG (CellTiter-Glo); conditions: E239Q vs wild type mouse MLKL; 50 ng/ml Dox 6 hr, then compound 24 hr; FIG. 7
T2 construct: expressed in transfected cells; host or cells: Mlkl-/- mouse embryonic fibroblasts (MEFs), lentiviral, doxycycline-inducible
T2 sequence (Q9D2Y4 1-472 E239Q): T1 sequence (Q9D2Y4 1-472 S345A/S347A) with E239Q, A345S, A347S
Method: Mlkl^−/− mouse embryonic fibroblasts (MEFs) were stably infected with lentiviral vector encoding wild type and E239Q mutant of mouse MLKL-FLAG under the control of the Doxocyclin (Dox)-inducible promoter. […] After 24 hr, cell viability at the end of treatment was determined using CellTiter-Glo Viability assay (Promega).

M272W mutant of MLKL = target: T3, M272W mutant of MLKL (Mus musculus, UniProt Q9D2Y4, M272W); assay: Viability of Mlkl-/- MEFs expressing M272W mutant of mouse MLKL-FLAG (CellTiter-Glo); conditions: 5 μM; 50 ng/ml Dox 6 hr, then 24 hr; FIG. 6
T3 sequence (Q9D2Y4 1-472 M272W): T1 sequence (Q9D2Y4 1-472 S345A/S347A) with M272W, A345S, A347S
Method: as §1, §2

CCN(CC)CCOc1ccc(Nc2ncc3cc(-c4ccc(O)c(C#N)c4)c(=O)n(C)c3n2)cc1 [SS-1-127, 5-(2-((4-(2-(Diethylamino)ethoxy)phenyl)amino)-8-methyl-7-oxo-7,8-dihydropyrido[2,3-d]pyrimidin-6-yl)-2-hydroxybenzonitrile]
Cell death induced by SS-1-127: dependence on MLKL and RIPK3 [1]: dependent on MLKL expression and independent from RIPK3
Effect of S345A, S347A double mutation on killing by SS-1-127 [2]: minor effect on killing
Activity / cell death with E239Q mutation compared to wild type MLKL [3]: much improved activity when combined with E239Q mutation compared to wild type MLKL

CCN(CC)CCOc1ccc(Nc2ncc3cc(-c4ccc(O)c([N+](=O)[O-])c4)c(=O)n(C)c3n2)cc1 [ALD-6-85]
Death in cells expressing M272W MLKL compared to wild type (M272W mutant of MLKL): induces reduced death in the cells expressing M272W MLKL compared to wild type protein
